Measurements published in publication PMC10123561 (Signal Transduction and Targeted Therapy, 2023).
“And” between values parts separate entries of the source, which are not always exact repeats. Equal values may be shown once. “Also recorded” adds a separate entry of the source. Where a name gives a salt, the structure may show the parent alone. Read-outs that look alike come from different tables or passages of the source.

Columns and labels:
[1] = cited from earlier work
wild type SARS-CoV-2 = test: microbe, parasite or virus in culture; format: cell-based; details: mean ± sd
in vitro = details: African green monkey
[2] = cited from earlier work; for AUC0-∞: healthy human volunteers
cathepsin L = details: read-out: IC50 against cathepsin L; cited from earlier work
[3] = male, rhesus monkey, in vivo
[4] = twice daily, cited from earlier work
SARS-CoV-2 = test: Randomized open-label clinical trial in mild/moderate COVID-19 patients, efficacy; format: in vivo
SARS-CoV-2 RdRp complex = SARS-CoV-2 RdRp complex (Severe acute respiratory syndrome coronavirus 2, UniProt P0DTD1); test: biochemical
[5] = human, in vivo
[6] = Pharmacokinetics in healthy rhesus macaques after nasogastric administration; details: 200 mg/kg nasogastric; for Cmax / AUC / MRT / half-life: rhesus monkey, plasma, 200 mg/kg
SARS-CoV-2 PL^pro = SARS-CoV-2 PL^pro (Severe acute respiratory syndrome coronavirus 2, UniProt P0DTD1); test: SARS-CoV-2 PL^pro inhibition assay; format: biochemical; details: read-out: inhibition rate against papain-like protease (PL^pro)
[7] = tested on: SARS-CoV-2 spike mediated cell fusion; details: at 10 μM; cited from earlier work
[8] = tested on: SARS-CoV-2 strain 20SF107; format: in vivo, rhesus macaques
inflammatory cytokines = details: at 2.5 μM; cited from earlier work
cyclophilin A = biological target: cyclophilin A; parameters: method as in PMID 34677780; details: cited from earlier work
SARS-CoV-2 M^pro = SARS-CoV-2 M^pro (Severe acute respiratory syndrome coronavirus 2, UniProt P0DTD1); test: biochemical
[9] = Lung distribution study in mouse; details: male, ICR, po
[10] = rats, 4 h after oral administration; cited from earlier work
[11] = HIV-infected patients; cited from earlier work
[12] = log-rank analysis, N = 5, NE = Not Evaluable

## Cc1c(O)cccc1C(=O)N[C@@H](CSc1ccccc1)[C@H](O)CN1C[C@H]2CCCC[C@H]2C[C@H]1C(=O)NC(C)(C)C [nelfinavir, Nelfinavir Mesylate]
[1]
  concentration in the lung epithelial lining fluid versus plasma: comparable to that in plasma
  proportion of patients with detectable drug in bronchoalveolar lavage (BAL) fluid: 100%
[1]; human, in vivo
  lung distribution in patients relative to plasma: approximately three times as high as that of plasma
Wild type SARS-CoV-2; Severe acute respiratory syndrome coronavirus 2, Vero C1008, Vero E6 cells
  EC50: 2.93 ± 0.32 µM
Wild type SARS-CoV-2; Severe acute respiratory syndrome coronavirus 2, Calu-3 cells
  EC50: 1.86 ± 0.26 µM
In vitro
  CC50: 51.6 µM
[2]; dosage of 100 mg
  AUC0-∞: 1250 ± 230 ng·h/mL
[2]; dosage of 800 mg
  AUC0-∞: 22208 ± 6306 ng·h/mL
[2]; human, 1250 mg BID, ref VIRACEPT FDA Package Insert Reference ID: 3986049
  plasma Ctrough,Morning: 3.87 µM
[2]; human, 1250 mg BID, ref VIRACEPT FDA Package Insert Reference ID: 3986049, read-out: plasma Cmax
  Cmax: 7.04 µM
Vero E6 cells
  selectivity index (SI): 17.59
Cathepsin L
  IC50: 18 µM
[3]
  plasma concentration in infected relative to healthy rhesus macaques: around 1/6
  trough plasma concentration (Ctrough): 0.26 µM
[3]; 200 mg/kg
  plasma concentration at 5 h after dosing (C5h), average: 0.55 µM
[4]; adults with solid tumors
  maximum tolerated dosage (MTD): 3125 mg
[4]; liposarcoma, MTD not reached
  maximum tolerated dosage (MTD): > 4250 mg
SARS-CoV-2; 7th day of treatment, N = 19
  proportion of subjects whose respiratory specimens were negative for SARS-CoV-2 RNA: 31.6%
SARS-CoV-2; 9/19
  proportion of cases with fever: 47.4%
SARS-CoV-2; 14th day of treatment
  chest CT results of moderate COVID-19: one patient was abnormal and had no clinical significance
SARS-CoV-2; 14th day of treatment, N = 19
  proportion of subjects whose respiratory specimens were negative for SARS-CoV-2 RNA: 68.4%
SARS-CoV-2; 14th day of treatment, patients with mild COVID-19 (N = 5)
  progression to severe or critical pneumonia: no subjects
SARS-CoV-2; N = 5, control 11.0 days
  TTCR time (time to clinical recovery): 7.0 days
SARS-CoV-2; P = 0.014
  shortening of duration of fever time versus control group: 3.8 days
SARS-CoV-2; P = 0.899
  shortening of median time for TTCR: 4.0 days
SARS-CoV-2; control 6.6 ± 4.1 days, P = 0.014
  average fever days (duration of fever time) in patients with fever: 2.8 days and 2.8 ± 1.6 days
SARS-CoV-2; day 7 of treatment
  progression of subjects with mild disease to pneumonia: did not progress to pneumonia
SARS-CoV-2; [12]
  time of TTCR, 25%(95%CI): 4.0(1.0~ NE) d
  time of TTCR, 50%(95%CI): 7.0(1.0~ NE) d
SARS-CoV-2; log-rank analysis, N = 19
  time to convert to negative throat swab, 25%(95%CI): 5.0(1.0~9.0) d
  time to convert to negative throat swab, 50%(95%CI): 9.0(5.0~11.0) d
  time to convert to negative throat swab, 75%(95%CI): 12.0(9.0~22.0) d
SARS-CoV-2; median, P = 0.055
  shortening of duration of viral shedding versus control group: 5.5 days
SARS-CoV-2; nelfinavir 1250 mg every 12 h, N = 19, control 14.5 days, P = 0.055
  median time to convert to negative throat swab of SARS-CoV-2 (duration of viral shedding): 9.0 days
SARS-CoV-2 RdRp complex
  IC50: 112 ± 8.2 µM
[5]
  cases of grade 1 adverse events: 15 cases
  death of illness: No patients died
  grade of adverse events during the trial: all grade 1
  number of patients with grade 1 adverse events: 10 patients
  patients with abnormal sitting blood pressure, respiratory rate and pulse: no clinically significant patients
  proportion of patients with grade 1 adverse events: 52.6%
[6]; Monkey 1, healthy
  Tpeak: 6.00 h
[6]; Monkey 2, healthy
  Tpeak: 4.00 h
[6]; oral, average maximum plasma concentration (Cmax), two healthy rhesus macaques
  Cmax: 3.2 µM
[6]; po, AUCon, Monkey 1, healthy
  AUC: 28.4 µM·h
[6]; po, AUCon, Monkey 2, healthy
  AUC: 10.6 µM·h
[6]; po, AUCtot, Monkey 1, healthy
  AUC: 28.4 µM·h
[6]; po, AUCtot, Monkey 2, healthy
  AUC: 10.7 µM·h
[6]; po, Cmax, Monkey 1, healthy
  Cmax: 5.33 µM
[6]; po, Cmax, Monkey 2, healthy
  Cmax: 1.07 µM
[6]; po, Monkey 1, healthy
  MRT: 7.25 h
[6]; po, Monkey 2, healthy
  MRT: 12 h
[6]; po, t1/2, Monkey 1, healthy
  half-life: 4.46 h
[6]; po, t1/2, Monkey 2, healthy
  half-life: 6.92 h
[6]; two healthy rhesus macaques
  time at which Cmax was achieved after dosing: 5 h
SARS-CoV-2 PL^pro
  inhibition at 100 µM: 33.3 ± 2.47%
[7]
  inhibition of SARS-CoV-2 spike mediated cell fusion: completely inhibit
[8]; 200 mg/kg prophylactic, twice daily
  body weight change compared with control monkeys: not significant
[8]; 200 mg/kg prophylactic, twice daily, […]
  body temperature compared with vehicle control monkeys: significantly lower
[8]; […], no statistical difference
  viral loads in extrapulmonary tissues, e.g. colon and heart, compared with control group: increasing trends
[8]; at necropsy, prophylactic treatment
  reduction of viral replication in the lungs: nearly three orders of magnitude; also recorded: approximately three orders of magnitude
[8]; rhesus monkey, in vivo
  reduction of virus RNA in lung (left lower lobe) compared to vehicle-treated monkeys: 2.88 log
  viral load in nasal swabs compared with control group: Significant reductions; also recorded: significantly reduced; also recorded: significantly lower
  viral load in rectal (anal) swabs compared with control group: Significant reductions; also recorded: significantly reduced; also recorded: significantly lower
  viral load in throat swabs compared with control group: without significance
  virus RNA in kidney samples: could not be detected
Inflammatory cytokines
  inhibition of inflammatory cytokines in vitro: successfully inhibit
Cyclophilin A
  Kd: 0.94 µM
SARS-CoV-2 M^pro; IC50 against SARS-CoV-2 M^pro
  IC50: 23 µM and > 20 µM
SARS-CoV-2 M^pro; IC50 against SARS-CoV-2 main protease (M^pro)
  IC50: 8.26 µM
[9]
  Kp: 2 to 3
[9]; 250 mg/kg
  Kp at 0.5 h: 2.08 ± 0.5
  Kp at 1 h: 2.35 ± 0.34
  Kp at 3 h: 2.24 ± 0.59
  Kp at 6 h: 1.81 ± 0.19
  Kp at 9 h: 2.33 ± 0.28
[9]; 750 mg/kg
  Kp at 0.5 h: 2.07 ± 0.42
  Kp at 1 h: 3.11 ± 0.82
  Kp at 3 h: 2.83 ± 0.33
  Kp at 6 h: 3.22 ± 0.63
  Kp at 9 h: 2.61 ± 0.08
[10]
  lung-to-plasma ratio: 3.24
[11]
  Cmax in PBMCs relative to plasma: ~ 15 fold
  cellular accumulation in PBMCs relative to plasma: 5.30 fold
